# Experimental data published in patent publication US5958947A, “DNA-affinic hypoxia selective cytotoxins” (priority 1996, dated 1999).
# Several values for one entry are separate records, joined by “and”; a condition that tells them apart may be missing. Identical values can stand only once. Entries after “also recorded” stand apart in the source; their conditions may differ. Counter-ions that a name gives are not always drawn. Like-named read-outs stand apart in the source and are kept apart here.
# Tests used:
# [1] = Acute aerobic and hypoxic cytotoxicity (colony formation); type: cell-based, Chinese hamster; details: chinese hamster, aerobic v79 cells, aerobic, 1 hour, 37° C.; for IC50 at 1 h: V79 cells, 50% inhibition of clonogenicity
# Method: (§1) Samples of V79 Chinese hamster lung cells used in the following experiments were prepared as follows. V79 cells, exponentially growing as monolayer cultures in RPMI 1640 medium (Mediatech) supplemented with 10% fetal calf serum, were trypsinized, centrifuged for 5 min, harvested, then suspended in 25 ml Erlenmeyer flasks fitted with rubber caps at 5×10^5 cells/ml (5 ml). Individual flasks either were shaken (100 rpm) at 37° C. under aerobic conditions or made hypoxic by gassing with a 95% N2 (nitrogen)/5% CO2 (carbon dioxide) humidified gas mixture for 1 hour.
# (§2) To determine the fraction of surviving cells, samples were removed, diluted and plated to provide 2×10^2 to 2×10^4 cells/well on 60 mm Linbro multi-well plates (Flow Laboratories, McLean, Virginia). The plates were incubated at 37° C. for 6 days, stained with crystal violet and examined for colony formation. Colonies of 50 cells or greater were counted. Each plotted point in FIGS. 1 and 2 represent the mean of three or four replicate experiments.
# [2] = system: V79 Chinese hamster lung cells; assay: as above; type: cell-based; details: for IC50: V79, 1 h, hypoxia, 50% inhibition of clonogenicity; for viability at 100 µM: 3.5 hours
# Method: as §1, §2
# calf thymus Topo I [3] = target: T1, calf thymus Topo I (Bos taurus, UniProt F1MN93); assay: Topoisomerase I interaction (relaxation of supercoiled DNA); type: biochemical; details: for IC100: 0.5 h; for IC50: Topo I inhibition (50%)-dose, Topo I-induced relaxation of supercoiled DNA
# T1 construct: purchased TopoGEN, Inc., Columbus, Ohio; host or cells: calf thymus
# T1 sequence (F1MN93 1-767): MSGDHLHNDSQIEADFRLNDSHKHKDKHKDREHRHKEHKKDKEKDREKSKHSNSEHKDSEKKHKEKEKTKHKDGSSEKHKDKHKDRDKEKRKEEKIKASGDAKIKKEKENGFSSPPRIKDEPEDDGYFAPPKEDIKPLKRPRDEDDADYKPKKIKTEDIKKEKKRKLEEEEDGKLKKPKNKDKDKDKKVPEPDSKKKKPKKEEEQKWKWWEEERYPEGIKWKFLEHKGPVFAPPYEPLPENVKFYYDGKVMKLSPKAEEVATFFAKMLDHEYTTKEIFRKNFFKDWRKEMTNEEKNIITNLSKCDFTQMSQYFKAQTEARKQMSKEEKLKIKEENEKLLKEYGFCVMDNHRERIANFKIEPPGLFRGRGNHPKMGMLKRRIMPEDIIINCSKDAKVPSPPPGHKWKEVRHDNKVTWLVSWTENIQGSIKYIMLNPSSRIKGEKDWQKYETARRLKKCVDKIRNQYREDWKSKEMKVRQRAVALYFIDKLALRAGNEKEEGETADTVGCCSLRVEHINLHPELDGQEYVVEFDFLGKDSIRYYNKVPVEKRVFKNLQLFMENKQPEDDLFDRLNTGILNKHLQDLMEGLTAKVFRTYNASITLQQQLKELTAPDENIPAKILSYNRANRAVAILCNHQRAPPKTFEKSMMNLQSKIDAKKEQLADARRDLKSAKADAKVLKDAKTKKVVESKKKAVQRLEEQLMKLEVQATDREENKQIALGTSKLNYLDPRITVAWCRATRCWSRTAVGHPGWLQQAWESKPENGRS
# Method: (§3) In particular, a Topo I drug screening kit (TopoGEN, Inc., Columbus, Ohio) was used to assay the topoisomerase I THNLA-1 interaction. […] Camptothecin is a Topoisomerase I poison used as an anticancer drug. Camptothecin stabilizes the Topo I-DNA cleavable complex, and therefore prevents the resealing of DNA by Topo-I.
# (§4) Individual reaction mixtures were heated for 30 minutes at 37° C. on a heating block, and then 2 μl of 10% SDS - proteinase K solution was added to each reaction mixture. The resulting reaction mixtures then were heated for an additional 30 minutes at 37° C. The reaction mixtures in a loading buffer were extracted with CHCl3 prior to submarine electrophoresis on a 1% agarose gel. The DNA bands were observed visually by staining with ethidium bromide (0.5 μg/ml).
# calf thymus Topo I [4] = assay: as above; type: biochemical; details: 800 μM, compound alone
# Method: as §3, §4
# human Topo II = assay: Topoisomerase II interaction (decatenation of kinetoplast DNA); type: biochemical; details: up to 1 mM
# Method: A Topo II assay kit (TopoGEN, Inc., Columbus, Ohio) also was used to assay the topoisomerase II--THNLA-1 interaction. […] Individual reaction mixtures were heated for 30 minutes at 37° C. on a heating block, and then 2 μl of a 10% SDS-proteinase K solution was added to each reaction mixture. The resulting reaction mixtures then were heated for an additional 30 minutes at 37° C. After addition of a 0.1 volume of loading buffer, the reaction mixtures were extracted with CHCl3 prior to submarine electrophoresis on a 1% agarose gel containing ethidium bromide (0.5 μg/ml).
# V79 cells [5] = assay: Drug uptake: intracellular and extracellular concentrations in V79 cells; type: cell-based, Chinese hamster
# Method: Also, uptake measurements at various times under both aerobic and hypoxic conditions were made. Afterwards, the samples were pelleted by centrifuging for 6 minutes at 0° C. A small volume of the supernatant (200 μl) was combined with 9 equal volumes (1.8 ml) of acetonitrile and the remaining supernatant was discarded. The samples were centrifuged again to remove residual supernatant and the pellets were lysed with 90 μl water and deproteinized with 0.9 ml acetonitrile. After centrifugation and filtration, all samples were stored at -70° C. until a UV spectroscopic analysis was made at two different wave lengths: 330 nm (nanometers) (absorption of the nitro-group) and 244 nm (λmax). […] Mean intracellular concentration of drug was calculated using a value of 810 fl as an intracellular water content of log-phase cells.
# Concentrations were determined by UV spectrophotometry at 330 nm. The plotted points represent results from two experiments, in triplicate.
# V79 cells [6] = assay: Drug uptake in the presence of ammonium chloride; type: cell-based, Chinese hamster; details: aerobic V79 cells, 60 μM input, 50 mM NH4Cl (stated for THNLA-1)
# Method: Uptake measurements in the presence of the lysosomotropic agent ammonium chloride (NH4 Cl) also were performed in a manner as previously described.
# Concentrations were determined by UV spectrophotometry at 330 nm. The plotted points represent the mean of two experiments.
# EMT6 tumors = assay: In vivo radiosensitization of EMT6 tumors; set-up: species or system balb mice; details: 0.103 mmol/g intraperitoneally, 20 Gy
# [7] = Toxicity study in balb mice; type: in vivo
# [8] = Cricetulus griseus, V79 cells, 1 hour, 37° C.
smiles,measurement,setting,value
"O=[N+]([O-])c1nccn1CCCNc1c2c(nc3ccccc13)CCSC2 [S-THNLA-1, 10-[3-(2-nitroimidazolyl)propylamino]-3,4-dihydro-1-H-thiopyrano[4,3-b]quinoline hydrochloride]",IC50 at 1 h,[1],580 µM
same,IC50,[2]; [8],68 µM
same,"Hypoxic selectivity (differential aerobic/hypoxic toxicity): IC50/A,1h /IC50/H,1h","[2]; V79 cells, 1 hour, 37° C.",about 9
same,IC100,calf thymus Topo I [3]; read-out: concentration for complete inhibition of Topo I,~800 µM
same,IC50,calf thymus Topo I [3],~800 µM
same,formation of nicked DNA with Topo I,calf thymus Topo I [3]; in Topo I test,some nicked DNA also was observed
same,formation of nicked DNA by compound alone,calf thymus Topo I [4],caused the formation of some nicked DNA
same,inhibition of Topo II-induced decatenation of kinetoplast DNA,human Topo II,did not inhibit the action of Topoisomerase II on kinetoplast DNA
"Cl.O=[N+]([O-])c1nccn1CCCNc1c2c(nc3ccccc13)CCCC2 [THNLA-1, 9-[3-(2-nitro-1-imidazolyl)propylamino]-1,2,3,4-tetrahydroacridine hydrochloride]",IC50 at 1 h,[1],~360 µM
same,IC90 at 1 h,"[1]; read-out: concentration to achieve a 10% survival fraction, aerobic",~475 µM
same,IC50,[2]; [8],~33 µM
same,IC90,"[2]; Cricetulus griseus, V79, hypoxic, 1 hour, 37° C., read-out: concentration to achieve a 10% survival fraction, hypoxic",~100 µM
same,viability at 100 µM,"[2]; V79, aerobic, read-out: survival fraction, aerobic",~50%
same,viability at 100 µM,"[2]; V79, hypoxic, read-out: survival fraction, hypoxic",< 0.002%
same,"Ci over 15, 30 and 60 minutes, aerobic","V79 cells [5]; 20 μM, aerobic V79 cells, 37° C.",basically unchanged
same,"Ci over time, hypoxic","V79 cells [5]; 20 μM, hypoxic V79 cells, 37° C.",a decrease of Ci over time
same,Ci compared with Ce,"V79 cells [5]; V79 cells, 37° C., input 0 to 500 μM or 20 μM",substantially greater
same,aerobic mean uptake factor (Ci/Ce) compared to NLA-1,V79 cells [5]; aerobic V79 cells,did not result in an increase of the aerobic mean uptake factor
same,input concentration at which the uptake factor (Ci/Ce) reaches a maximum,"V79 cells [5]; aerobic, 30 minutes, 37° C.",about 100 μM
same,factor of decrease of Ci in the presence of NH4Cl,V79 cells [6],about 3
same,Topo I-dependent single-stranded DNA cleavage,calf thymus Topo I [3],not observed
same,IC100,calf thymus Topo I [3]; read-out: complete inhibition of Topo I not observed up to,> 1000 µM
same,IC50,calf thymus Topo I [3],~600 µM and 600 µM
same,inhibition of Topo I-induced relaxation,calf thymus Topo I [3]; supercoiled DNA,"inhibits Topo I-induced relaxation of supercoiled DNA, but at significantly higher concentrations than NLA-type compounds"
same,concentration at which inhibition of Topo I starts,calf thymus Topo I [3]; supercoiled DNA relaxation,100 µM
same,inhibition of Topo II-induced decatenation of kinetoplast DNA,human Topo II; hydrochloride,does not inhibit the Topo II-induced decatenation of KDNA even at very high concentrations; also recorded: did not inhibit decatenation of kinetoplast DNA
same,administration time before irradiation for maximum radiosensitization,EMT6 tumors,at least one hour before irradiation
same,radiosensitizing effect in vivo,"EMT6 tumors; EMT6 tumors in balb mice, hydrochloride",synergistic effect; also recorded: potent radiosensitizing effect; also recorded: enhanced the effects of 20 Gy radiation in EMT6 tumors to a similar degree as 2 mmol/g of etanidazole
same,nontoxic concentration,[7],at least 0.129 mmol/g
